Reference: the NIST ThermoML archive (doi:10.1016/j.jct.2009.11.014)

Details: Liquid; for viscosity: Stony Brook Scientific falling needle HPHTV-100 viscometer; for mass density: vibrating tube

CCn1cc[n+](C)c1.F[B-](F)(F)F [1-ethyl-3-methylimidazolium tetrafluoroborate]
Details | mass density [kg/m3] | viscosity [mPa·s]
282.55 K, 100 kPa | – | 67.8
282.55 K, 700 kPa | – | 69.1
282.55 K, 1700 kPa | – | 70.1
282.55 K, 2700 kPa | – | 71.6
282.55 K, 4400 kPa | – | 72.9
282.55 K, 6100 kPa | – | 74.3
282.55 K, 8200 kPa | – | 75.5
282.55 K, 10300 kPa | – | 76.1
282.55 K, 12900 kPa | – | 77.9
282.55 K, 14100 kPa | – | 79.3
283.15 K, 100 kPa | 1297.04 | –
283.15 K, 2000 kPa | 1297.83 | –
283.15 K, 4000 kPa | 1298.68 | –
283.15 K, 6000 kPa | 1299.52 | –
283.15 K, 8000 kPa | 1300.36 | –
283.15 K, 10000 kPa | 1301.22 | –
283.15 K, 12000 kPa | 1302.03 | –
283.15 K, 14000 kPa | 1302.82 | –
283.15 K, 20000 kPa | 1305.3 | –
283.15 K, 30000 kPa | 1309.33 | –
283.15 K, 40000 kPa | 1313.27 | –
283.15 K, 50000 kPa | 1317.06 | –
283.15 K, 60000 kPa | 1320.84 | –
288.15 K, 100 kPa | 1293.21 | –
288.15 K, 2000 kPa | 1294.02 | –
288.15 K, 4000 kPa | 1294.88 | –
288.15 K, 6000 kPa | 1295.72 | –
288.15 K, 8000 kPa | 1296.59 | –
288.15 K, 10000 kPa | 1297.45 | –
288.15 K, 12000 kPa | 1298.29 | –
288.15 K, 14000 kPa | 1299.08 | –
288.15 K, 20000 kPa | 1301.58 | –
288.15 K, 30000 kPa | 1305.62 | –
288.15 K, 40000 kPa | 1309.54 | –
288.15 K, 50000 kPa | 1313.39 | –
288.15 K, 60000 kPa | 1317.17 | –
293.15 K, 100 kPa | 1289.36 | –
293.15 K, 2000 kPa | 1290.17 | –
293.15 K, 4000 kPa | 1291.05 | –
293.15 K, 6000 kPa | 1291.91 | –
293.15 K, 8000 kPa | 1292.79 | –
293.15 K, 10000 kPa | 1293.63 | –
293.15 K, 12000 kPa | 1294.48 | –
293.15 K, 14000 kPa | 1295.29 | –
293.15 K, 20000 kPa | 1297.8 | –
293.15 K, 30000 kPa | 1301.86 | –
293.15 K, 40000 kPa | 1305.84 | –
293.15 K, 50000 kPa | 1309.69 | –
293.15 K, 60000 kPa | 1313.49 | –
293.75 K, 6300 kPa | – | 46.1
293.75 K, 8200 kPa | – | 47.5
293.75 K, 10100 kPa | – | 48.4
293.75 K, 12400 kPa | – | 49.3
293.85 K, 100 kPa | – | 43.4
293.85 K, 700 kPa | – | 43.7
293.85 K, 1700 kPa | – | 44.1
293.85 K, 2700 kPa | – | 44.4
293.85 K, 4200 kPa | – | 44.9
293.85 K, 14500 kPa | – | 49.7
298.15 K, 100 kPa | 1285.51 | –
298.15 K, 2000 kPa | 1286.33 | –
298.15 K, 4000 kPa | 1287.22 | –
298.15 K, 6000 kPa | 1288.13 | –
298.15 K, 8000 kPa | 1289.02 | –
298.15 K, 10000 kPa | 1289.83 | –
298.15 K, 12000 kPa | 1290.7 | –
298.15 K, 14000 kPa | 1291.53 | –
298.15 K, 20000 kPa | 1294.05 | –
298.15 K, 30000 kPa | 1298.17 | –
298.15 K, 40000 kPa | 1302.18 | –
298.15 K, 50000 kPa | 1306.09 | –
298.15 K, 60000 kPa | 1309.95 | –
303.15 K, 100 kPa | 1281.74 | –
303.15 K, 2000 kPa | 1282.57 | –
303.15 K, 4000 kPa | 1283.44 | –
303.15 K, 6000 kPa | 1284.35 | –
303.15 K, 8000 kPa | 1285.26 | –
303.15 K, 10000 kPa | 1286.08 | –
303.15 K, 12000 kPa | 1287 | –
303.15 K, 14000 kPa | 1287.82 | –
303.15 K, 20000 kPa | 1290.4 | –
303.15 K, 30000 kPa | 1294.54 | –
303.15 K, 40000 kPa | 1298.58 | –
303.15 K, 50000 kPa | 1302.56 | –
303.15 K, 60000 kPa | 1306.43 | –
